Data reported in PMC9516332 (Frontiers in Oncology, 2022).
pIC50: −log10 of the molar value. Like-named read-outs stand apart in the source and are kept apart here.

Tested on: 134 cancer cell lines
Test: Cell viability assay (ATPlite, 72 hours), IC50 on cancer cell line panel

pIC50 (Homo sapiens, MKN-45, read-out: IC50 in cell proliferation assay, MKN45 cell line (MET amplification)): 5.94
pIC50 (Homo sapiens, MOLM-13, read-out: IC50 in cell proliferation assay, MOLM-13 cell line (FLT3 ITD)): 5.99
pIC50 (Homo sapiens, MOLT-4, read-out: IC50 in cell proliferation assay, MOLT-4 cell line): < 4.50
pIC50 (Homo sapiens, MV4-11, read-out: IC50 in cell proliferation assay, MV4-11 cell line (FLT3 ITD)): 6.29
pIC50 (Homo sapiens, MeWo, read-out: IC50 in cell proliferation assay, MeWo cell line): 6.93
pIC50 (Homo sapiens, NCCIT, read-out: IC50 in cell proliferation assay, NCC-IT cell line): 4.92
pIC50 (Homo sapiens, NCI-H82, read-out: IC50 in cell proliferation assay, cell line NCI-H82): < 4.50
pIC50 (Homo sapiens, NCI-H460, read-out: IC50 in cell proliferation assay, NCI-H460 cell line): 6.92
pIC50 (Homo sapiens, NCI-H661, read-out: IC50 in cell proliferation assay, NCI-H661 cell line): 5.48
pIC50 (Homo sapiens, NCI-H716, read-out: IC50 in cell proliferation assay, cell line NCI-H716 (FGFR2-COL14A1)): 7.57
pIC50 (Homo sapiens, NCI-H1650, read-out: IC50 in cell proliferation assay, NCI-H1650 cell line (EGFR exon19del)): 5.07
pIC50 (Homo sapiens, NCI-H1975, read-out: IC50 in cell proliferation assay, NCI-H1975 cell line (EGFR p.L858R + p.T790M)): 6.70
pIC50 (Homo sapiens, NCI-H2228, read-out: IC50 in cell proliferation assay, NCI-H2228 cell line (EML4-ALK)): 7.80
pIC50 (Homo sapiens, OVCAR-3, read-out: IC50 in cell proliferation assay, cell line OVCAR-3): < 4.50
pIC50 (Homo sapiens, PFSK-1, read-out: IC50 in cell proliferation assay, cell line PFSK-1): < 4.50
pIC50 (Homo sapiens, RL95-2, read-out: IC50 in cell proliferation assay, cell line RL95-2 (EGFR p.A289V)): 7.62
pIC50 (Homo sapiens, RPMI-7951, read-out: IC50 in cell proliferation assay, cell line RPMI-7951 (BRAF p.V600E)): 6.70
pIC50 (Homo sapiens, RS4-11, read-out: IC50 in cell proliferation assay, cell line RS4;11): < 4.50
pIC50 (Homo sapiens, Rec1, read-out: IC50 in cell proliferation assay, cell line REC-1): < 4.50
pIC50 (Homo sapiens, SHP77, read-out: IC50 in cell proliferation assay, cell line SHP-77): < 4.50
pIC50 (Homo sapiens, SK-BR-3, read-out: IC50 in cell proliferation assay, cell line SK-BR-3 (ERBB2 amplification)): < 4.50
pIC50 (Homo sapiens, SK-N-AS, read-out: IC50 in cell proliferation assay, cell line SK-N-AS): 7.85
pIC50 (Homo sapiens, SK-N-FI, read-out: IC50 in cell proliferation assay, cell line SK-N-FI): 6.10
pIC50 (Homo sapiens, SK-N-MC, read-out: IC50 in cell proliferation assay, cell line SK-N-MC): < 4.50
pIC50 (Homo sapiens, SK-N-SH, read-out: IC50 in cell proliferation assay, cell line SK-N-SH (ALK p.F1174L)): 7.23
pIC50 (Homo sapiens, SNU-5, read-out: IC50 in cell proliferation assay, cell line SNU-5 (MET amplification)): 5.83
pIC50 (Homo sapiens, SNU-16, read-out: IC50 in cell proliferation assay, cell line SNU-16 (FGFR2 amplification)): 5.01
pIC50 (Homo sapiens, SNU-C2B, read-out: IC50 in cell proliferation assay, cell line SNU-C2B (EGFR p.R165Q)): 6.75
pIC50 (Homo sapiens, SU-DHL-1, read-out: IC50 in cell proliferation assay, cell line SU-DHL-1 (NPM1-ALK)): 5.55
pIC50 (Homo sapiens, SU-DHL-6, read-out: IC50 in cell proliferation assay, cell line SU-DHL-6): 7.33
pIC50 (Homo sapiens, SUP-T1, read-out: IC50 in cell proliferation assay, cell line SUP-T1): < 4.50
pIC50 (Homo sapiens, SW48, read-out: IC50 in cell proliferation assay, cell line SW48 (EGFR p.G719S)): 7.85
pIC50 (Homo sapiens, SW480, read-out: IC50 in cell proliferation assay, cell line SW480): 6.13
pIC50 (Homo sapiens, SW626, read-out: IC50 in cell proliferation assay, cell line SW626): 7.49
pIC50 (Homo sapiens, SW780, read-out: IC50 in cell proliferation assay, cell line SW780 (FGFR3-BAIAP2L1)): 6.57
pIC50 (Homo sapiens, SW837, read-out: IC50 in cell proliferation assay, cell line SW837): 6.96
pIC50 (Homo sapiens, SW872, read-out: IC50 in cell proliferation assay, cell line SW872 (BRAF p.V600E)): 7.47
pIC50 (Homo sapiens, SW900, read-out: IC50 in cell proliferation assay, cell line SW900): 7.11
pIC50 (Homo sapiens, SW948, read-out: IC50 in cell proliferation assay, cell line SW948): 7.09
pIC50 (Homo sapiens, SW982, read-out: IC50 in cell proliferation assay, cell line SW982 (BRAF p.V600E)): 6.78
pIC50 (Homo sapiens, SW-620, read-out: IC50 in cell proliferation assay, cell line SW620): 7.74
pIC50 (Homo sapiens, T98G, read-out: IC50 in cell proliferation assay, cell line T98G): 4.92
pIC50 (Homo sapiens, TCC-SUP, read-out: IC50 in cell proliferation assay, cell line TCCSUP): 6.44
pIC50 (Homo sapiens, THP-1, read-out: IC50 in cell proliferation assay, cell line THP-1): 7.77
pIC50 (Homo sapiens, U2OS, read-out: IC50 in cell proliferation assay, cell line U2OS): 5.38
pIC50 (Homo sapiens, U-87 MG, read-out: IC50 in cell proliferation assay, cell line U-87MG ATCC): 5.07
pIC50 (Homo sapiens, U-118-MG, read-out: IC50 in cell proliferation assay, cell line U-118MG): < 4.50
pIC50 (Homo sapiens, UMUC3, read-out: IC50 in cell proliferation assay, cell line UM-UC-3): 6.91
pIC50 (Hs766T, read-out: IC50 in cell proliferation assay, Hs 766T cell line): 7.48
pIC50 (L-82, read-out: IC50 in cell proliferation assay, L-82 cell line (NPM1-ALK)): 5.72
pIC50 (Rh30, read-out: IC50 in cell proliferation assay, cell line Rh30): < 4.50
pIC50 (read-out: IC50 in cell proliferation assay, 11-18 cell line (EGFR p.L858R)): < 4.50
pIC50 (read-out: IC50 in cell proliferation assay, Hs 852.T cell line): 6.57
pIC50 (read-out: IC50 in cell proliferation assay, JAR cell line): < 4.50
pIC50 (read-out: IC50 in cell proliferation assay, cell line 5637): 6.86
pIC50 (read-out: IC50 in cell proliferation assay, cell line A-388): 6.16
pIC50 (read-out: IC50 in cell proliferation assay, cell line DB): < 4.50
pIC50 (read-out: IC50 in cell proliferation assay, cell line DEL (NPM1-ALK)): < 4.50
pIC50 (read-out: IC50 in cell proliferation assay, cell line ES-2 (BRAF p.V600E)): 6.73
pIC50 (read-out: IC50 in cell proliferation assay, cell line PA-1): 5.87
pIC50 (read-out: IC50 in cell proliferation assay, cell line PC-3): < 4.50
pIC50 (read-out: IC50 in cell proliferation assay, cell line RD): 7.40
pIC50 (read-out: IC50 in cell proliferation assay, cell line RKO (BRAF p.V600E)): 7.54
pIC50 (read-out: IC50 in cell proliferation assay, cell line RL): < 4.50
pIC50 (read-out: IC50 in cell proliferation assay, cell line RT-4 (FGFR3-TACC3)): 4.72
pIC50 (read-out: IC50 in cell proliferation assay, cell line SR (NPM1-ALK)): 5.40
pIC50 (read-out: IC50 in cell proliferation assay, cell line T24): 7.22
pIC50 (read-out: IC50 in cell proliferation assay, cell line TT (RET p.C634W)): 5.76
pIC50 (read-out: IC50 in cell proliferation assay, cell line VA-ES-BJ): 5.08
SMILES: Cn1cnc2c(F)c(Nc3ccc(Br)cc3F)c(C(=O)NOCCO)cc21 [binimetinib]
